ChEMBL document CHEMBL1201862, “PubChem BioAssay data set” (2004)
Calls of active or inactive are those of the source.

Experiments:
[1] = StAR promoter reporter inhibition counter-screen, dose response, counter-screen for LRH-1 inverse agonist project, cell-based, luminescence, luciferase reporter (AID 651969); assay type: functional
[2] = inhibitors of intracellular T. cruzi replication, confirmation, NIH3T3 host cells, beta-gal luminescence (AID 2044); assay type: functional, cell-based;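 note: intracellular parasites grown in NIH/3T3 mouse fibroblasts as host cells; luminescent beta-galactosidase reporter signal from transgenic T. cruzi replicating inside host cells; inhibitors lower the luminescence signal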
[3] = target: Nuclear receptor subfamily 5 group A member 2 (Homo sapiens, UniProt O00482); assay type: functional, cell-based;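 note: HEK293T cells transfected with LRH-1 and a StAR promoter luciferase reporter; potency for inhibitors that lower LRH-1 driven reporter light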
Chain of Nuclear receptor subfamily 5 group A member 2 (O00482 whole entry): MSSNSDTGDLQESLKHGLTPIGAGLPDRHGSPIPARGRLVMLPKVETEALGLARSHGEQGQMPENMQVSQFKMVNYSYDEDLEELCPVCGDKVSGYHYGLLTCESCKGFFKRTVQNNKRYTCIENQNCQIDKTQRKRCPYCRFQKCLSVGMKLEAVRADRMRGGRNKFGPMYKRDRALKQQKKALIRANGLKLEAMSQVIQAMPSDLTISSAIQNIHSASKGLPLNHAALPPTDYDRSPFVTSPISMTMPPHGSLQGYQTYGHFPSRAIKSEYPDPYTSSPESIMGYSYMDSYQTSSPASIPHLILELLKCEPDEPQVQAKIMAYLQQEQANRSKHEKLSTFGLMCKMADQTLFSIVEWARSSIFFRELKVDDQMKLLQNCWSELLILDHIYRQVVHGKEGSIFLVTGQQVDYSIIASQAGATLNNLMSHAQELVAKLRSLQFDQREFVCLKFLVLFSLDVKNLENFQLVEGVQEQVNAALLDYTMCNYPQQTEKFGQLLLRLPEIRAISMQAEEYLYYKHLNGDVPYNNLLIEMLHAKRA

cells [4] = assay: cells
[5] = cytotoxicity toward NIH3T3 fibroblasts, dose response, counter-screen, cell-based, ATP luminescence, mouse fibroblasts (AID 2010); assay type: functional;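 note: cells exposed to compound for about 90 hours before reading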
Steroidogenic factor 1 = Steroidogenic factor 1 (Homo sapiens, UniProt Q13285); assay: Counterscreen for inverse agonists of the liver receptor homolog-1 (LRH-1; NR5A2): Luminescence-based cell-based high throughput dose response assay to identify inverse agonists of the Steroidogenic Factor 1 Nuclear Receptor (SF1; NR5A1).; assay type: functional
Chain of Steroidogenic factor 1 (Q13285 whole entry): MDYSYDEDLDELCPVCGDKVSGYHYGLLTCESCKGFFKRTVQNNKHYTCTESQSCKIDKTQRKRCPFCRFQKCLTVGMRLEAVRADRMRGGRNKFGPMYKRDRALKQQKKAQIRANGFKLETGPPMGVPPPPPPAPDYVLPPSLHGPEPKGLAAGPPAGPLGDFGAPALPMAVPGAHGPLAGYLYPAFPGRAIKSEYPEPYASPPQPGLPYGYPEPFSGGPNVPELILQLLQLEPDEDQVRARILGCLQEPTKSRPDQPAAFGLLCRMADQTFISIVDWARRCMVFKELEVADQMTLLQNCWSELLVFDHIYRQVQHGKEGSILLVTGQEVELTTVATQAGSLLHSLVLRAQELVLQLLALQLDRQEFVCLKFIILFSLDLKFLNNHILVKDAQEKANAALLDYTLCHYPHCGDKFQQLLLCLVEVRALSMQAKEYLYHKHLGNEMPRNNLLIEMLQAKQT

[6] = P. falciparum late gametocyte killing, dose response, luminescence (AID 1117278); assay type: functional, cell-based;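 note: gametocytes exposed to compound for 24 hours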
[7] = Jurkat T cell cytotoxicity, dose response, cytotoxicity control for P. falciparum gametocyte viability project, luminescence (AID 1117277); assay type: functional, cell-based;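 note: potency reflects loss of cellular ATP meaning fewer viable cells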
[8] = P. falciparum Dd2 growth inhibitors, dose response, SYBR Green, cherry-picked samples (AID 1159567); assay type: functional, cell-based
[9] = P. falciparum ATP4 D1247Y mutant growth inhibitors, dose response, NITD609-resistant line, SYBR Green, dry powder (AID 1159571); assay type: functional, cell-based;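 note: parasites synchronized at ring stage by sorbitol before testing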
[10] = P. falciparum Dd2 growth inhibitors, dose response, SYBR Green, dry powder samples (AID 1159566); assay type: functional, cell-based;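 note: potency for growth inhibition with lower SYBR green DNA signal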
[11] = HepG2 cell cytotoxicity, dose response, cytotoxicity control, plate reader, dry powder samples (AID 1159569); assay type: functional, cell-based;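 note: inhibitor potency with signal falling toward the positive control level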
[12] = P. falciparum 3D7-ScDHODH growth inhibitors, dose response, SYBR Green, dry powder samples (AID 1159570); assay type: functional, cell-based;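 note: parasite growth measured after 72 hours of compound exposure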
Galanin receptor type 3 = target: T1, Galanin receptor type 3 (Homo sapiens, UniProt O60755); assay: Fluorescence-based cell-based primary high throughput dose response assay to identify antagonists of the Galanin Receptor 3 (GalR3).; assay type: functional
T1 sequence (O60755 whole entry): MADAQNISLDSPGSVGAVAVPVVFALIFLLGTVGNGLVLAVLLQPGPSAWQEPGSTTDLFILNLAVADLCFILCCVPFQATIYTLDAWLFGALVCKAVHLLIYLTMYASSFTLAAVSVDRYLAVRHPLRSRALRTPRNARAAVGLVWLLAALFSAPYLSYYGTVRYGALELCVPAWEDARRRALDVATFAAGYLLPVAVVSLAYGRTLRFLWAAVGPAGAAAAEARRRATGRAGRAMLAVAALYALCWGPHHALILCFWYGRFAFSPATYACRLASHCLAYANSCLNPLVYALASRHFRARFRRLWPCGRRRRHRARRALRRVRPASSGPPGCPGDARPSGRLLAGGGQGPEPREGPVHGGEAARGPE

cells [13] = assay type: functional, cell-based; details: HEK-CNG
[14] = HepG2 cell cytotoxicity, dose response, cytotoxicity control, plate reader, cherry-pick, antagonist series (AID 743416); assay type: functional, cell-based
[15] = LGR2 antagonists, dose response, cell-based, HEK293, CRE-luciferase reporter, cherry pick, set 2 (AID 743343); assay type: functional;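 note: transfected cells were stimulated with diluted bursicon conditioned medium after compound addition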
[16] = A549 cell cytotoxicity, dose response, cytotoxicity control, plate reader, cherry-pick, antagonist series (AID 743412); assay type: functional, cell-based
[17] = MC4R antagonists, dose response, counter-screen for LGR2 antagonist project, cell-based, plate reader, cherry pick (AID 743444); assay type: functional;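 note: transfected HEK 293 cells stimulated with alpha-MSH peptide; potency of inhibitors of the alpha-MSH evoked signal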
[18] = target: T2, COUP transcription factor 2 (Homo sapiens, UniProt P24468); assay: Luminescence-based cell-based high throughput dose response assay to identify inhibitors of COUP-TFII (NR2F2).; assay type: functional;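 note: HEK293 cells transiently cotransfected with COUP-TFII expression vector and reporter; luciferase reporter luminescence driven by COUP-TFII from the pX2-168 reporter plasmid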
T2 sequence (P24468 whole entry): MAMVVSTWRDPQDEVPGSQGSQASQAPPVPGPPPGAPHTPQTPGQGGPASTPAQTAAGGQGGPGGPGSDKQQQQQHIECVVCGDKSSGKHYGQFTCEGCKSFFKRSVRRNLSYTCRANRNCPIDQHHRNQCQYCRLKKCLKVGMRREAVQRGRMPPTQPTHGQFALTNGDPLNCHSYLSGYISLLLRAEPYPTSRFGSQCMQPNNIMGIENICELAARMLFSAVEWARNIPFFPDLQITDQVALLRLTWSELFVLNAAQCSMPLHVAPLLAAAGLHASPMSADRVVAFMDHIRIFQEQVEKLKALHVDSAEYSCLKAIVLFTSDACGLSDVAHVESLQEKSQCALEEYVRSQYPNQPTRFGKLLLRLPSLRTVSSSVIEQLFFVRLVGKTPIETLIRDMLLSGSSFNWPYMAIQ

HEK293 [19] = assay: cells; assay type: functional, cell-based; details: Homo sapiens
[20] = tested on: Streptococcus sp. 'group A'; assay: growth inhibition of control SK(-) GAS strain, dose response, counter-screen for streptokinase expression inhibitor project, luminescence, kanamycin, BacTiterGlo, confirmation (AID 1900); assay type: functional, organism-based
fMet-Leu-Phe receptor = target: T3, fMet-Leu-Phe receptor (Homo sapiens, UniProt P21462); assay: FPR ligands, dose response (AID 519); assay type: functional
T3 sequence (P21462 whole entry): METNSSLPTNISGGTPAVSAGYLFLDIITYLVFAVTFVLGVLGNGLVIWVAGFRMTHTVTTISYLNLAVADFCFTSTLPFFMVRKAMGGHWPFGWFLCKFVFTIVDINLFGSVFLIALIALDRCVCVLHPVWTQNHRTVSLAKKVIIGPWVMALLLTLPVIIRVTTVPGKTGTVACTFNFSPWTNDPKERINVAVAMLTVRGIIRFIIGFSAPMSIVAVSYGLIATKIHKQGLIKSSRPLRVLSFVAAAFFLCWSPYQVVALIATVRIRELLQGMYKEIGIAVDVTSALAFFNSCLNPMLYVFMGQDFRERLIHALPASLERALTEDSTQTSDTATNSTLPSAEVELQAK

Streptokinase A = target: T4, Streptokinase A (Streptococcus pyogenes serotype M1, UniProt P10520); assay: S. pyogenes streptokinase expression inhibitors, potency, dose response, plasminogen activation absorbance, OD405 (AID 1914); assay type: functional, Streptococcus pyogenes M1 GAS;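 note: secreted streptokinase activity via plasminogen activation per viability signal from cell pellet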
T4 sequence (P10520 whole entry): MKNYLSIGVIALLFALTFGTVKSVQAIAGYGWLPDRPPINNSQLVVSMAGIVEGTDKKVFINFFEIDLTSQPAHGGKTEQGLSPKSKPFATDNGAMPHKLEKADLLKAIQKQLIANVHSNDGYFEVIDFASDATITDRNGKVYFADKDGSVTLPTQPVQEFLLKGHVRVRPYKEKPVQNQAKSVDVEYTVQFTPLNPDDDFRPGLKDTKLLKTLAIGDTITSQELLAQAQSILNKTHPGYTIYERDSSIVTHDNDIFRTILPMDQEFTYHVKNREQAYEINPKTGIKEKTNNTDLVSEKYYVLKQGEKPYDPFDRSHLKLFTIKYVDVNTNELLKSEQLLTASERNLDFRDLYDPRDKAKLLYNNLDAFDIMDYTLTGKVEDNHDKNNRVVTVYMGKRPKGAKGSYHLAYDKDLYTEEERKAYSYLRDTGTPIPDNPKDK

HEK293 [21] = assay: NOD2 signaling inhibitors in MDP-stimulated cells, cell-based, uHTS, luminescence (AID 2001); assay type: functional; details: Homo sapiens
Streptococcus = assay: Group A Streptococcus viability loss, dose response, counter-screen for streptokinase expression inhibitor project, luminescence, BacTiterGlo (AID 1915); assay type: functional, organism-based;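 note: potency for reduction of bacterial viability or growth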
HEK293 [22] = assay: NOD1 signaling inhibitors, primary screen, cell-based, luminescence, uHTS (AID 1578); assay type: functional; details: Homo sapiens
Beta-galactosidase = Beta-galactosidase (Escherichia coli, UniProt Q8VNN2); assay: beta-galactosidase enzyme inhibitors and activators, dose response, artefact control for CCR6 antagonist project, biochemical, E. coli enzyme, set 3 (AID 504712); assay type: functional
Chain of Beta-galactosidase (Q8VNN2 whole entry): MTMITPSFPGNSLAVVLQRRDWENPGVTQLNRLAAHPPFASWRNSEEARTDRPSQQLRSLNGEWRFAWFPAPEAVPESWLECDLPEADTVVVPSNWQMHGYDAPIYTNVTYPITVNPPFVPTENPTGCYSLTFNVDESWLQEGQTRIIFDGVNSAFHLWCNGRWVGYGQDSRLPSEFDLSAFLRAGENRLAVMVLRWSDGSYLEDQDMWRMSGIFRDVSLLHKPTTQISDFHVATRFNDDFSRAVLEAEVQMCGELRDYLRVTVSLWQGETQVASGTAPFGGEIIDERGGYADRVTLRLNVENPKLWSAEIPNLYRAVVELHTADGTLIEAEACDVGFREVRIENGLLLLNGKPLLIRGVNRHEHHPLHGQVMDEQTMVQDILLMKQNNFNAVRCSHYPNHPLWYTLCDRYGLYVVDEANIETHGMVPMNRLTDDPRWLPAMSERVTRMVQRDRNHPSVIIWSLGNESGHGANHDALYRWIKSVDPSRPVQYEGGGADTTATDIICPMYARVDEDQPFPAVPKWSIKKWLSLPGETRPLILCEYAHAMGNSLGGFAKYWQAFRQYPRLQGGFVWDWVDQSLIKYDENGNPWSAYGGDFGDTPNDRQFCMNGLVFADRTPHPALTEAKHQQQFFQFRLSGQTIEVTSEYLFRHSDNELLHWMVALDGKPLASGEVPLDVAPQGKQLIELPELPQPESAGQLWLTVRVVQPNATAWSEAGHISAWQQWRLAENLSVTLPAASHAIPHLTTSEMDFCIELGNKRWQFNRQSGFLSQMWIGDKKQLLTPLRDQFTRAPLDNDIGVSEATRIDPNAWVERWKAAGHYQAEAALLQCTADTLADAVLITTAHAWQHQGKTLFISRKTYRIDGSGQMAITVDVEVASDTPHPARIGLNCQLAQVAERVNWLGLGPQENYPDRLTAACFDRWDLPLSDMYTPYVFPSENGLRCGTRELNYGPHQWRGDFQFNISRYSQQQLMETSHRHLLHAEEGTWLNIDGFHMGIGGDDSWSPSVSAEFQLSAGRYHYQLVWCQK

HEK293 [23] = assay: cells; assay type: functional, cell-based; details: Homo sapiens; remark: listed apart in the source
[24] = THP-1 cell cytotoxicity, dose response, cytotoxicity control for Vif-APOBEC3G degradation inhibitor project, THP-1 cells (AID 1117359); assay type: functional; details: Human immunodeficiency virus 1, THP-1
Prothrombin = Prothrombin (Homo sapiens, UniProt P00734); assay: Thrombin 1536 HTS Dose Response Confirmation. [Related pubchem assays: 1046 (Thrombin 1536 HTS; hits were confirmed in this assay)]; assay type: functional
[25] = target: Luciferin 4-monooxygenase (Photinus pyralis, UniProt P08659); assay: firefly luciferase enzyme inhibitors, dose response, biochemical, luminescence (AID 1891)
Chain of Luciferin 4-monooxygenase (P08659 whole entry): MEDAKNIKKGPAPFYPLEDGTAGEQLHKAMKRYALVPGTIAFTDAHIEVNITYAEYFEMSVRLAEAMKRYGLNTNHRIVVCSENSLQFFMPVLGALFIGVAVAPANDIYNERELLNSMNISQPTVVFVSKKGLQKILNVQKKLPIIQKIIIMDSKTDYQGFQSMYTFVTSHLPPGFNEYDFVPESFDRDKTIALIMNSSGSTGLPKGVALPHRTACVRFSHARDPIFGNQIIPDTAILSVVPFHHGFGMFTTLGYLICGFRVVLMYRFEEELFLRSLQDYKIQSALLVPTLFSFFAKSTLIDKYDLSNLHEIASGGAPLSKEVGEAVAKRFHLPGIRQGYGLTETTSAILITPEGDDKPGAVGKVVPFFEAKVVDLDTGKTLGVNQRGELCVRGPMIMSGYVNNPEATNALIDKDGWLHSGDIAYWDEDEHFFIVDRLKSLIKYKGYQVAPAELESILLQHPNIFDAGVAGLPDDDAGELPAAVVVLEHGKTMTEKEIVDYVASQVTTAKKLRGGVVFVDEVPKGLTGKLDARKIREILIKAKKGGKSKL

[26] = Luminescence Cell-Based Dose Confirmation HTS to Identify Inhibitors of Platelet Dense Granule Release. [Related pubchem assays: 1663 (Primary HTS), 1678 (Summary of Project)]; assay type: functional

SMILES: Cc1onc(-c2cccc(Cl)c2Cl)c1C(=O)ON=C(N)c1ccc([N+](=O)[O-])o1
- IC50 [1]: 35.9 µM (inactive)
- EC50 [2]: < 0.1 µM (active)
- IC50 [3]: 0.198 µM (active)
- EC50 (cells [4]): 0.011 µM (active)
- EC50 [5]: 11.6 µM (active)
- IC50 (Steroidogenic factor 1): 0.0492 µM (active)

SMILES: Cn1ccnc1C(O)c1ccco1 (stereo not given)
- IC50 [6]: > 109 µM (inactive)
- IC50 [7]: > 83.3 µM (inactive)

SMILES: COc1cccc(NC(=O)N(C)C[C@@H]2Oc3cc(C#Cc4ccc(F)cc4)ccc3S(=O)(=O)N([C@H](C)CO)C[C@@H]2C)c1
- AC50 [8]: 1.63 µM (active)
- AC50 [9]: 0.95 µM (active)
- AC50 [10]: 0.815 µM (active)
- AC50 [11]: > 100 µM (inactive)
- AC50 [12]: 1.17 µM (active)

SMILES: C[C@@H]1CN([C@@H](C)CO)S(=O)(=O)c2ccc(/C=C/c3ccccc3)cc2O[C@H]1CN(C)C(=O)C1CC1
- AC50 [8]: 2.37 µM (active)
- AC50 [9]: 2.64 µM (active)
- AC50 [10]: 2.18 µM (active)
- AC50 [11]: 79.2 µM (active)
- AC50 [12]: 3.43 µM (active)

SMILES: CCc1ccc(CNCCc2ccc(F)cc2)cc1
- EC50 [2]: < 0.1 µM (active)
- EC50 (cells [4]): 0.043 µM (active)
- EC50 [5]: > 30 µM (not active)

SMILES: Cc1ccnc(Nc2nc(-c3sc(C)nc3C)cs2)c1
- IC50 (Galanin receptor type 3): > 30 µM (inactive)
- EC50 (cells [13]): > 30 µM (inactive)
- AC50 [14]: 10.4 µM (active)
- AC50 [15]: 17.6 µM (active)
- AC50 [16]: 25.3 µM (active)
- AC50 [17]: 33.5 µM (active)
- IC50 [18]: 12.6 µM (inactive)

SMILES: COc1ccc2nc(Nc3nc(C)c(C(C)=O)s3)sc2c1
- EC50 [20]: 3.37 µM (active)
- Ki (fMet-Leu-Phe receptor): > 66.7 µM (inactive)
- EC50 (Streptokinase A): > 150 µM (not active)
- IC50 (HEK293 [21]): 8.11 µM (inactive)
- EC50 (Streptococcus): 17.8 µM (active)
- EC50 (HEK293 [22]): 14.3 µM (active)
- IC50 (Beta-galactosidase): > 66.6 µM (inactive)
- IC50 (HEK293 [23]): > 20 µM (inactive)

SMILES: COc1cccc(OC)c1OCCCCN1CCC(Cc2ccccc2)CC1
- IC50 [6]: > 109 µM (inactive)
- IC50 [7]: > 83.3 µM (inactive)

SMILES: O=C(Nc1ccncc1)Nc1ccc(Br)cc1Cl
- EC50 [2]: < 0.1 µM (active)
- EC50 (cells [4]): 0.075 µM (active)
- EC50 [5]: > 60 µM (not active)

SMILES: O=C(c1cc(COc2ccc(F)cc2F)on1)N1CCN(C2CCCC2)C(=O)C1
- CC50 [24]: > 40 µM (active)

SMILES: COc1ccc(S(=O)(=O)NC(C)C(=O)Nc2cccc(C(C)=O)c2)cc1 (stereo not given)
- IC50 (Prothrombin): > 50 µM (not active)
- Ki (fMet-Leu-Phe receptor): > 66.7 µM (inactive)

SMILES: O=[N+]([O-])c1cc(-c2nc3nc4ccccc4nc3n2CCc2ccccc2)cc([N+](=O)[O-])c1
- EC50 [2]: < 0.1 µM (active)
- EC50 (cells [4]): 0.273 µM (active)
- EC50 [5]: > 60 µM (not active)

SMILES: COC(=O)C1(S(=O)(=O)c2cccc3nsnc23)CC1
- Ki (fMet-Leu-Phe receptor): > 66.7 µM (inactive)

SMILES: CCC(=O)Oc1ccc(-c2nc(-c3cccnc3)no2)cc1
- EC50 [20]: 7.51 µM (active)
- EC50 (Streptococcus): 9.17 µM (active)
- EC50 [25]: 4.33 µM (active)
- EC50 [26]: 0.435 µM (active)
- IC50 [6]: 28.8 µM (inactive)
- IC50 [7]: > 83.3 µM (inactive)
